Assay results as given in patent US20200399222A1, “PICOLINAMIDES AS FUNGICIDES” (Dow AgroSciences LLC, priority 2018, published 2020).
Like-named read-outs stand apart in the source and are kept apart here.

Columns and labels:
Assay type in all cases: in vivo
Phakopsora pachyrhizi = experiment: Asian soybean rust (PHAKPA) disease control on soybean seedlings; details: Phakopsora pachyrhizi, High volume application at 25 ppm
Method: Example C: Evaluation of Fungicidal Activity: Asian Soybean Rust (Phakopsora pachyrhizi; Bayer Code […]) Technical grades of materials were dissolved in acetone, which were then mixed with nine volumes of water containing 0.011% Tween 20. The fungicide solutions were applied onto soybean seedlings using an automated booth sprayer to run-off. All sprayed plants were allowed to air dry prior to further handling. Soybean plants (variety Williams 82) were grown in soil-less Metro mix, with one plant per pot. Two week old seedlings were used for testing. Plants were inoculated either 3 days prior to or 1 day after fungicide treatments. Plants were incubated for 24 h in a dark dew room at 22° C. and 100% relative humidity then transferred to a growth room at 23° C. for disease to develop. Disease severity was assessed on the sprayed leaves.

Zymoseptoria tritici = experiment: Leaf blotch of wheat (SEPTTR) disease control on wheat seedlings; details: Low volume application, 121.5 g/ha
Method: Example A: Evaluation of Fungicidal Activity: Leaf Blotch of Wheat (Zymoseptoria tritici; Bayer Code […]) Technical grades of materials were dissolved in acetone, which were then mixed with nine volumes of water containing 110 ppm Triton X-100. The fungicide solutions were applied onto wheat seedlings using an automated booth sprayer to run-off. All sprayed plants were allowed to air dry prior to further handling. All fungicides were evaluated using the aforementioned method for their activity vs. all target diseases, unless stated otherwise. Wheat leaf blotch and brown rust activity were also evaluated using track spray applications, in which case the fungicides were formulated as EC formulations, containing 0.1% Trycol 5941 in the spray solutions. Wheat plants (variety Yuma) were grown from seed in a greenhouse in 50% mineral soil/50% soil-less Metro mix until the first leaf was fully emerged, with 7-10 seedlings per pot. These plants were inoculated with an aqueous spore suspension of Zymoseptoria tritici either prior to or after fungicide treatments. After inoculation the plants were kept in 100% relative humidity (one day in a dark dew chamber followed by two to three days in a lighted dew chamber at 20° C.) to permit spores to germinate and infect the leaf. The plants were then transferred to a greenhouse set at 20° C. for disease to develop. When disease symptoms were fully expressed on the 1st leaves of untreated plants, infection levels were assessed on a scale of 0 to 100 percent disease severity. Percent disease control was calculated using the ratio of disease severity on treated plants relative to untreated plants.

Puccinia triticina = experiment: Wheat brown rust (PUCCRT) disease control on wheat seedlings; details: Low volume application, 121.5 g/ha
Method: Technical grades of materials were dissolved in acetone, which were then mixed with nine volumes of water containing 110 ppm Triton X-100. The fungicide solutions were applied onto wheat seedlings using an automated booth sprayer to run-off. All sprayed plants were allowed to air dry prior to further handling. All fungicides were evaluated using the aforementioned method for their activity vs. all target diseases, unless stated otherwise. Wheat leaf blotch and brown rust activity were also evaluated using track spray applications, in which case the fungicides were formulated as EC formulations, containing 0.1% Trycol 5941 in the spray solutions. Example B: Evaluation of Fungicidal Activity: Wheat Brown Rust (Puccinia triticina; Synonym: Puccinia recondita f. sp. tritici; Bayer Code PUCCRT) Wheat plants (variety Yuma) were grown from seed in a greenhouse in 50% mineral soil/50% soil-less Metro mix until the first leaf was fully emerged, with 7-10 seedlings per pot. These plants were inoculated with an aqueous spore suspension of Puccinia triticina either prior to or after fungicide treatments. After inoculation the plants were kept in a dark dew room at 22° C. with 100% relative humidity overnight to permit spores to germinate and infect the leaf. The plants were then transferred to a greenhouse set at 24° C. for disease to develop. Fungicide formulation, application and disease assessment followed the procedures as described in the Example A.

[1] = 24 h, 1 day protectant, read-out: PHAKPA 1DP (1 Day Protectant) disease control
[2] = 72 h, 3 day curative, read-out: PHAKPA 3DC (3 Day Curative) disease control
[3] = 24 h, 1 Day Protectant, read-out: SEPTTR disease control rating, 1DP
[4] = 72 h, 3 Day Curative, read-out: SEPTTR disease control rating, 3DC
[5] = 24 h, 1 Day Protectant, read-out: PUCCRT disease control rating, 1DP
[6] = 72 h, 3 Day Curative, read-out: PUCCRT disease control rating, 3DC

COc1ccnc(C(=O)N[C@@H](C)C(=O)O[C@H](C)[C@H](C)C2CCCC2)c1OC(C)=O [Example 252]
pest or weed control at 25 ppm (Phakopsora pachyrhizi; [1]): < 80%
pest or weed control at 25 ppm (Phakopsora pachyrhizi; [2]): < 80%
pest or weed control at 121.5 g/ha (Zymoseptoria tritici; [3]): < 0%
pest or weed control at 121.5 g/ha (Zymoseptoria tritici; [4]): < 80%
pest or weed control at 121.5 g/ha (Puccinia triticina; [5]): < 0%
pest or weed control at 121.5 g/ha (Puccinia triticina; [6]): < 80%

COc1ccnc(C(=O)N[C@@H](C)C(=O)O[C@@H](C)[C@@H](C)c2ccccc2C(F)(F)F)c1OC(=O)C(C)C [Example 234]
pest or weed control at 25 ppm (Phakopsora pachyrhizi; [1]): > 80%
pest or weed control at 25 ppm (Phakopsora pachyrhizi; [2]): > 80%
pest or weed control at 121.5 g/ha (Zymoseptoria tritici; [3]): < 80%
pest or weed control at 121.5 g/ha (Zymoseptoria tritici; [4]): < 80%
pest or weed control at 121.5 g/ha (Puccinia triticina; [5]): < 80%
pest or weed control at 121.5 g/ha (Puccinia triticina; [6]): < 80%

COc1ccnc(C(=S)N[C@@H](C)C(=O)O[C@@H](C)[C@@H](C)c2ccc(F)cc2C(F)(F)F)c1OC(C)=O [Example 271]
pest or weed control at 25 ppm (Phakopsora pachyrhizi; [1]): > 80%
pest or weed control at 25 ppm (Phakopsora pachyrhizi; [2]): > 80%
pest or weed control at 121.5 g/ha (Zymoseptoria tritici; [3]): < 80%
pest or weed control at 121.5 g/ha (Zymoseptoria tritici; [4]): < 80%
pest or weed control at 121.5 g/ha (Puccinia triticina; [5]): < 80%
pest or weed control at 121.5 g/ha (Puccinia triticina; [6]): < 80%

COc1ccnc(C(=O)N[C@@H](C)C(=O)O[C@@H](C)[C@@H](C)C2CCCC2)c1OC(=O)C(C)C [Example 236]
pest or weed control at 25 ppm (Phakopsora pachyrhizi; [1]): > 80%
pest or weed control at 25 ppm (Phakopsora pachyrhizi; [2]): < 0%
pest or weed control at 121.5 g/ha (Zymoseptoria tritici; [3]): < 80%
pest or weed control at 121.5 g/ha (Zymoseptoria tritici; [4]): < 0%
pest or weed control at 121.5 g/ha (Puccinia triticina; [5]): < 80%
pest or weed control at 121.5 g/ha (Puccinia triticina; [6]): < 80%

COc1ccnc(C(=S)N[C@@H](C)C(=O)O[C@@H](C)[C@@H](C)C2CCCC2)c1OC(C)=O [Example 272]
pest or weed control at 25 ppm (Phakopsora pachyrhizi; [1]): > 80%
pest or weed control at 25 ppm (Phakopsora pachyrhizi; [2]): < 80%
pest or weed control at 121.5 g/ha (Zymoseptoria tritici; [3]): < 80%
pest or weed control at 121.5 g/ha (Zymoseptoria tritici; [4]): < 80%
pest or weed control at 121.5 g/ha (Puccinia triticina; [5]): < 80%
pest or weed control at 121.5 g/ha (Puccinia triticina; [6]): < 80%

COc1ccc([C@@H](C)[C@@H](C)OC(=O)[C@H](C)NC(=O)c2nccc(OC)c2OCOC(C)=O)c(C)c1 [Example 233]
pest or weed control at 25 ppm (Phakopsora pachyrhizi; [1]): > 80%
pest or weed control at 25 ppm (Phakopsora pachyrhizi; [2]): < 80%
pest or weed control at 121.5 g/ha (Zymoseptoria tritici; [3]): < 80%
pest or weed control at 121.5 g/ha (Zymoseptoria tritici; [4]): < 80%
pest or weed control at 121.5 g/ha (Puccinia triticina; [5]): > 80%
pest or weed control at 121.5 g/ha (Puccinia triticina; [6]): < 80%

COc1ccnc(C(=O)N[C@@H](C)C(=O)O[C@H](C)[C@H](C)c2c(C)cc(F)cc2C)c1OC(=O)C(C)C [Example 242]
pest or weed control at 25 ppm (Phakopsora pachyrhizi; [1]): > 80%
pest or weed control at 25 ppm (Phakopsora pachyrhizi; [2]): > 80%
pest or weed control at 121.5 g/ha (Zymoseptoria tritici; [3]): > 80%
pest or weed control at 121.5 g/ha (Zymoseptoria tritici; [4]): > 80%
pest or weed control at 121.5 g/ha (Puccinia triticina; [5]): > 80%
pest or weed control at 121.5 g/ha (Puccinia triticina; [6]): < 80%

COc1ccnc(C(=O)N[C@@H](C)C(=O)O[C@H](C)[C@H](C)c2ccccc2C(F)(F)F)c1OC(=O)C(C)C [Example 239]
pest or weed control at 25 ppm (Phakopsora pachyrhizi; [1]): < 80%
pest or weed control at 25 ppm (Phakopsora pachyrhizi; [2]): < 80%
pest or weed control at 121.5 g/ha (Zymoseptoria tritici; [3]): < 80%
pest or weed control at 121.5 g/ha (Zymoseptoria tritici; [4]): < 80%
pest or weed control at 121.5 g/ha (Puccinia triticina; [5]): < 0%
pest or weed control at 121.5 g/ha (Puccinia triticina; [6]): < 0%

COc1ccnc(C(=O)N[C@@H](C)C(=O)O[C@H](C)[C@H](C)c2ccc(C)cc2C)c1OC(C)=O [Example 178]
pest or weed control at 25 ppm (Phakopsora pachyrhizi; [1]): > 80%
pest or weed control at 25 ppm (Phakopsora pachyrhizi; [2]): < 80%
pest or weed control at 121.5 g/ha (Zymoseptoria tritici; [3]): < 80%
pest or weed control at 121.5 g/ha (Zymoseptoria tritici; [4]): < 80%
pest or weed control at 121.5 g/ha (Puccinia triticina; [5]): < 80%
pest or weed control at 121.5 g/ha (Puccinia triticina; [6]): < 80%

COc1ccnc(C(=S)N[C@@H](C)C(=O)O[C@@H](C)[C@@H](C)c2ccccc2C(F)(F)F)c1OC(C)=O [Example 270]
pest or weed control at 25 ppm (Phakopsora pachyrhizi; [1]): > 80%
pest or weed control at 25 ppm (Phakopsora pachyrhizi; [2]): < 80%
pest or weed control at 121.5 g/ha (Zymoseptoria tritici; [3]): < 80%
pest or weed control at 121.5 g/ha (Zymoseptoria tritici; [4]): < 80%
pest or weed control at 121.5 g/ha (Puccinia triticina; [5]): < 80%
pest or weed control at 121.5 g/ha (Puccinia triticina; [6]): < 80%

COc1ccnc(C(=O)N[C@@H](C)C(=O)O[C@@H](C)[C@@H](C)c2ccccc2C(F)(F)F)c1OC(C)=O [Example 245]
pest or weed control at 25 ppm (Phakopsora pachyrhizi; [1]): > 80%
pest or weed control at 25 ppm (Phakopsora pachyrhizi; [2]): > 80%
pest or weed control at 121.5 g/ha (Zymoseptoria tritici; [3]): > 80%
pest or weed control at 121.5 g/ha (Zymoseptoria tritici; [4]): > 80%
pest or weed control at 121.5 g/ha (Puccinia triticina; [5]): > 80%
pest or weed control at 121.5 g/ha (Puccinia triticina; [6]): < 80%

COc1ccnc(C(=O)N[C@@H](C)C(=O)O[C@@H](C)[C@@H](C)c2c(C)cccc2C)c1OC(=O)C(C)C [Example 237]
pest or weed control at 25 ppm (Phakopsora pachyrhizi; [1]): > 80%
pest or weed control at 25 ppm (Phakopsora pachyrhizi; [2]): > 80%
pest or weed control at 121.5 g/ha (Zymoseptoria tritici; [3]): < 80%
pest or weed control at 121.5 g/ha (Zymoseptoria tritici; [4]): < 80%
pest or weed control at 121.5 g/ha (Puccinia triticina; [5]): < 80%
pest or weed control at 121.5 g/ha (Puccinia triticina; [6]): < 80%
